Structures can show the parent of a compound that is named as a salt.
Assays:
[1] = tested on: 60 human tumor cell lines; details: 5-fluorouracil comparison value; cited from earlier work
[2] = literature; cited from earlier work
[3] = literature; cited from earlier work; remark: listed apart in the source
[4] = tested on: acetic acid induced mouse writhes; assay: Acetic acid induced mouse writhes (analgesic activity); format: in vivo, mice; details: oral
Description: Analgesic activity was evaluated by a procedure similar to that described by Koster et al. [R. Koster, et al., Fed. Proc., 18, 412 (1959)]. About one hour after oral administration of test compounds to mice, 0.1 ml/10 g body weight of acetic acid was intraperitoneally injected. About five minutes later, the number of writhes of each mouse was counted for a period of about 20 minutes. The analgesic effect was manifested as a reduction in the number of writhes. "Compound numbers" refer to compounds whose synthesis is illustrated in the corresponding Example number. The P values are the results of T-tests, which are well known to those skilled in the art.

[5] = tested on: Ehrlich ascites carcinoma; assay: Antitumor effect on Ehrlich ascites carcinoma, survival; format: in vivo, ICR mice; details: 20 mg/kg/day intraperitoneal, 9 days
Description: Antitumor effect was measured on Ehrlich ascites carcinoma. Ehrlich ascites carcinoma cells were intraperitoneally administered to ICR mice. After 24 hours, 20 mg/kg/day of the compound whose synthesis is illustrated in Example 1 and Example 2 were each administered to the mice by intraperitoneal route for 9 days. The periods of survival of these animals were examined.

male mice = assay: Acute toxicity; details: mouse, in vivo
Description: (§1) The acute toxicity of one typical compound of this invention was measured by administering the compound to a group of 4 week old male mice.

Acute toxicity = details: mouse, in vivo, 4 week old male mice
Description: as §1

[6] = tested on: 60 human tumor cell lines; assay: National Cancer Institute in vitro tumor cell screen; format: cell-based; design: key to Differential Cellular Sensitivity GI50, tumor cell line subpanels / Differential Cellular Sensitivity LC50, tumor cell line subpanels / Differential Cellular Sensitivity TGI, tumor cell line subpanels: LEU: Leukemia/lymphoma; LNS: Nonsmall cell lung; COL: Colon; MEL: Melanoma; OVA: Ovary; REN: Kidney; SCL: Small cell lung; details: for GI50 / IC100 / LC50: Homo sapiens, molar concentration, mean of all cell lines; for GI50: 50% inhibition of cell proliferation, read-out: Mean response of all cell lines (Log) GI50 (converted); for IC100: 100% inhibition of cell proliferation, read-out: Mean response of all cell lines (Log) TGI (converted); for Differential Cellular Sensitivity GI50, tumor cell line subpanels: subpanels for GI50; for Differential Cellular Sensitivity LC50, tumor cell line subpanels: subpanels for LC50; for Differential Cellular Sensitivity TGI, tumor cell line subpanels: subpanels for TGI; for LC50: 50% of cell population killed, read-out: Mean response of all cell lines (Log) LC50 (converted)
Description: In the assay, a candidate compound was tested for its ability to inhibit tumor cell growth. A dose response curve of percent cell growth versus compound concentration over a concentration range of 10^-9 to 10^-4 molar of each test compound was established to determine GI50, TGI and LC50. GI50 and TGI denote that cell proliferation was inhibited by 50% and 100% respectively. LC50 denotes that 50% of cell population was killed. The selectivity of a compound towards a certain type of tumor cell line was evaluated from mean graphs which compared the relative drug concentrations required to produce the same level of response (e.g. GI50) in each cell line. A differential cellular sensitivity index was calculated by taking the difference between the logarithm of GI50 (or TGI, LC50) value for a cell line versus the arithmetic mean of the logarithm of GI50 (or TGI, LC 50) value for all cell line responses measured for a given compound.

[7] = tested on: carrageenin-induced rat paw edema; assay: Carrageenin-induced rat paw edema (anti-inflammatory activity); format: in vivo, Wistar rats; details: paw volume at about 3 hours
Description: Anti-inflammatory activity was evaluated by examining the inhibitory activity of candidate compounds on carrageenin-induced rat paw edema according to a literature procedure [C. A. Winter, et al., Proc. Soc. Exp. Biol. Med. 111, 544 (1962)]. Test compounds were orally administered about 1 hour or subcutaneously injected about 0.5 hours before the injection of 100 microliters of a 1% suspension of carrageenin in saline into the subcutaneous tissues of the right hind paw of Wistar rats. The paw volumes were measured about 3 hours after carrageenin injection. The paw volumes were compared with that of a control group to give the percentage of inflammation inhibition. The results of these tests are shown in Table I. "Compound numbers" refer to compounds whose synthesis is illustrated in the corresponding Example number. The P values are the results of T-tests, which are well known to those skilled in the art.

[8] = 50.0 mg/kg sc, about 0.5 hours before carrageenin
[9] = 25.0 mg/kg sc, about 0.5 hours before carrageenin
[10] = 96.0 mg/kg po, about 1 hour before carrageenin

| Compound | GI50 [6] | IC100 [6] | Differential Cellular Sensitivity GI50, tumor cell line subpanels [6] | Differential Cellular Sensitivity LC50, tumor cell line subpanels [6] | Differential Cellular Sensitivity TGI, tumor cell line subpanels [6] | LC50 [6] | other results |
| --- | --- | --- | --- | --- | --- | --- | --- |
| O=c1[nH]cc(F)c(=O)[nH]1 [5-fluorouracil] | – | – | – | – | – | – | mean log LC50 [1]: -3.5 |
| C=C1C(=O)O[C@H]2C[C@@H](C)[C@@H]3C=CC(=O)[C@@]3(C)C[C@H]12 [Aromaticin] | – | – | – | – | – | – | anti-inflammatory activity (in words) [2]: potent; anticancer activity (in words) [3]: potent |
| CC(=O)Oc1ccccc1C(=O)O [Aspirin, reference compound] | – | – | – | – | – | – | Inhibition of acetic acid induced mouse writhes ([4]; 100 mg/kg): 46.7%; Inhibition of acetic acid induced mouse writhes ([4]; 200 mg/kg): 64.0% |
| CCCC/C=C1\CCC(CN(C)C)C1=O.Cl (centres unmarked) [Compound 1, 2-Dimethylaminomethyl-5-(E)-pentylidene cyclopentanone hydrochloride] | 1.58 µM | 3.8 µM | LEU;COL | COL;LNS;REN | COL;REN | – | average number of days of survival [5]: 41 ± 5.4 days; increase of life span (ILS %) over the control [5]: 173.8%; ratio of survival for more than 40 days [5]: 9/11; acute toxicity (in words) (male mice): low acute toxicity; LD50 (Acute toxicity; ip, intraperitoneal): 107 mg/kg; LD50 (Acute toxicity; iv, intraveneous): 52 mg/kg; LD50 (Acute toxicity; oral): 486 mg/kg |
| CCCCCCC/C=C1\CCC(CN(C)C)C1=O.Cl (centres unmarked) [Compound 2, 2-Dimethylaminomethyl-5-(E)-octylidene cyclopentanone hydrochloride] | 5.13 µM | 12.3 µM | LEU;COL | COL;LNS;REN | COL;REN | – | average number of days of survival [5]: 33 ± 8.2 days; increase of life span (ILS %) over the control [5]: 112.0%; ratio of survival for more than 40 days [5]: 3/9 |
| CC(C)=C1CCC(CN(C)C)C1=O.Cl (centres unmarked) [Compound 3, 2-Dimethylaminomethyl-5-(1-methylethylidene) cyclopentanone hydrochloride] | 19.1 µM | 40.7 µM | LEU | SCL | COL;LEU | 67.6 µM | – |
| CCOC(=O)COc1ccccc1/C=C1\CCC(CN(C)C)C1=O.Cl (centres unmarked) [Compound 4, 2-Dimethylaminomethyl-5-(E)-(2-ethoxycarbonylmethoxyl-benzylidene) cyclopentanone hydrochloride] | 6.31 µM | 15.8 µM | LEU | CNS;LNS;MEL | LEU | – | – |
| CC(/C=C1\CCC(CN(C)C)C1=O)c1cccc(Br)c1.Cl (centres unmarked) [Compound 5, 2-Dimethylaminomethyl-5-(E)-[2-(3-bromophenyl)propylidene] cyclopentanone hydrochloride] | 12.6 µM | 27.5 µM | LEU | CNS;OVA | LEU | 63.1 µM | – |
| CN(C)CC1CC/C(=C\c2ccccc2)C1=O.Cl (centres unmarked) [Compound 6, 2-Dimethylaminomethyl-5-(E)-benzylidene cyclopentanone hydrochloride] | – | – | – | – | – | – | Inhibition of carrageenin induced rat paw edema [7, 8]: 77.4% |
| COc1ccccc1/C=C1\CCC(CN(C)C)C1=O.Cl (centres unmarked) [Compound 7, 2-Dimethylaminomethyl-5-(E)-[(2-methoxy)benzylidene] cyclopentanone hydrochloride] | 6.31 µM | 15.8 µM | LEU | COL | COL | 39.8 µM | Inhibition of carrageenin induced rat paw edema ([7]; 12.5 mg/kg sc, about 0.5 hours before carrageenin): 44.2%; Inhibition of carrageenin induced rat paw edema [7, 9]: 70.3%; Inhibition of carrageenin induced rat paw edema [7, 8]: 95.8% |
| CN(C)CC1CC/C(=C\c2ccc(O)cc2)C1=O.Cl (centres unmarked) [Compound 8, 2-Dimethylaminomethyl-5-(E)-[(4-hydroxy)benzylidene] cyclopentanone hydrochloride] | 4.27 µM | 10.7 µM | COL;LEU | CNS;REN;SCL | LEU | – | Inhibition of carrageenin induced rat paw edema [7, 8]: 95.9% |
| O=C1/C(=C/c2ccc(O)cc2)CCC1CNc1ccc(Cl)cc1 (centres unmarked) [Compound 9, 2-[(4-Chlorophenyl)aminomethyl]-5-(E)-[(4-hydroxy)benzylidene] cyclopentanone] | 3.16 µM | 10 µM | COL;LEU;SCL | COL | LEU;SCL | 30.9 µM | – |
| COc1ccccc1/C=C1\CCC(CN2CCOCC2)C1=O.Cl (centres unmarked) [Compound 10, 2-Morpholinomethyl-5-(E)-[(2-methoxy)benzylidene]cyclopentanone hydrochloride] | 7.94 µM | 19.5 µM | LEU;COL | MEL;REN;OVA | LEU | 52.5 µM | – |
| COc1ccccc1/C=C1\CCC(Cc2ccccc2)(CN(C)C)C1=O.Cl (centres unmarked) [Compound 11, 2-Benzyl-2-dimethylaminomethyl-5-(E)-[(2-methoxy)benzylidene] cyclopentanone hydrochloride] | 2.19 µM | 25.1 µM | LEU;COL | COL | LEU | 83.2 µM | Inhibition of acetic acid induced mouse writhes ([4]; 96 mg/kg): 41.7%; Inhibition of carrageenin induced rat paw edema [7, 10]: 52.2% |
| COc1ccc(/C=C2\CCC(Cc3ccccc3)(CN(C)C)C2=O)cc1.Cl (centres unmarked) [Compound 12, 2-Benzyl-2-dimethylaminomethyl-5-(E)-[(4-methoxy)benzylidene] cyclopentanone hydrochloride] | 35.5 µM | 77.6 µM | COL;MEL | SCL | LEU;SCL | – | Inhibition of acetic acid induced mouse writhes ([4]; 48 mg/kg): 45.6%; Inhibition of acetic acid induced mouse writhes ([4]; 96 mg/kg): 86.6%; Inhibition of carrageenin induced rat paw edema [7, 10]: 57.3% |
| CN(C)CCC1(C2=CCCC2)CC/C(=C\c2ccc(Cl)cc2)C1=O (centres unmarked) [Compound 13, 2-(1-Cyclopenten-1-yl)-2-dimethylaminoethyl-5-(E)-[(4-chloro)benzylidene]cyclopentanone hydrochloride] | 7.08 µM | 19.1 µM | MEL | MEL | MEL | 44.7 µM | – |
| C=C1C(=O)O[C@@H]2C[C@@H](C)[C@@H]3C=CC(=O)[C@@]3(C)[C@@H](O)[C@H]12 [Helenalin] | – | – | – | – | – | – | anti-inflammatory activity (in words) [2]: potent; anticancer activity (in words) [3]: potent |
| CC(C)Cc1ccc(C(C)C(=O)O)cc1 (centres unmarked) [Ibuprofen, reference compound] | – | – | – | – | – | – | Inhibition of carrageenin induced rat paw edema [7, 9]: 72.9%; Inhibition of carrageenin induced rat paw edema ([7]; 52.0 mg/kg po, about 1 hour before carrageenin): 54.9% |
| C[C@@H]1C[C@@H]2OC(=O)[C@]3(C)[C@H]2[C@@H](OC3(C)O)[C@]2(C)C(=O)C=C[C@@H]12 (some centres unmarked) [Tenulin] | – | – | – | – | – | – | anti-inflammatory activity (in words) [2]: potent; anticancer activity (in words) [3]: potent |

From patent publication US5250735A, “2-(N-substituted-aminoalkyl)-5-(E)-alkylidene cyclopentanones, 2-(N-substituted-aminoalkyl)-5-(E)-arylalkylidene cyclopentanones, and derivatives thereof” (priority 1992, dated 1993)
